For this experiment, the target named is ABCB1 (P-glycoprotein) (Homo sapiens, UniProt P08183). Description: ABCB1 ATPase stimulation in plasma membrane vesicles. The experiment is classed as biochemical.
Sequence of ABCB1 (P-glycoprotein) (P08183 whole entry): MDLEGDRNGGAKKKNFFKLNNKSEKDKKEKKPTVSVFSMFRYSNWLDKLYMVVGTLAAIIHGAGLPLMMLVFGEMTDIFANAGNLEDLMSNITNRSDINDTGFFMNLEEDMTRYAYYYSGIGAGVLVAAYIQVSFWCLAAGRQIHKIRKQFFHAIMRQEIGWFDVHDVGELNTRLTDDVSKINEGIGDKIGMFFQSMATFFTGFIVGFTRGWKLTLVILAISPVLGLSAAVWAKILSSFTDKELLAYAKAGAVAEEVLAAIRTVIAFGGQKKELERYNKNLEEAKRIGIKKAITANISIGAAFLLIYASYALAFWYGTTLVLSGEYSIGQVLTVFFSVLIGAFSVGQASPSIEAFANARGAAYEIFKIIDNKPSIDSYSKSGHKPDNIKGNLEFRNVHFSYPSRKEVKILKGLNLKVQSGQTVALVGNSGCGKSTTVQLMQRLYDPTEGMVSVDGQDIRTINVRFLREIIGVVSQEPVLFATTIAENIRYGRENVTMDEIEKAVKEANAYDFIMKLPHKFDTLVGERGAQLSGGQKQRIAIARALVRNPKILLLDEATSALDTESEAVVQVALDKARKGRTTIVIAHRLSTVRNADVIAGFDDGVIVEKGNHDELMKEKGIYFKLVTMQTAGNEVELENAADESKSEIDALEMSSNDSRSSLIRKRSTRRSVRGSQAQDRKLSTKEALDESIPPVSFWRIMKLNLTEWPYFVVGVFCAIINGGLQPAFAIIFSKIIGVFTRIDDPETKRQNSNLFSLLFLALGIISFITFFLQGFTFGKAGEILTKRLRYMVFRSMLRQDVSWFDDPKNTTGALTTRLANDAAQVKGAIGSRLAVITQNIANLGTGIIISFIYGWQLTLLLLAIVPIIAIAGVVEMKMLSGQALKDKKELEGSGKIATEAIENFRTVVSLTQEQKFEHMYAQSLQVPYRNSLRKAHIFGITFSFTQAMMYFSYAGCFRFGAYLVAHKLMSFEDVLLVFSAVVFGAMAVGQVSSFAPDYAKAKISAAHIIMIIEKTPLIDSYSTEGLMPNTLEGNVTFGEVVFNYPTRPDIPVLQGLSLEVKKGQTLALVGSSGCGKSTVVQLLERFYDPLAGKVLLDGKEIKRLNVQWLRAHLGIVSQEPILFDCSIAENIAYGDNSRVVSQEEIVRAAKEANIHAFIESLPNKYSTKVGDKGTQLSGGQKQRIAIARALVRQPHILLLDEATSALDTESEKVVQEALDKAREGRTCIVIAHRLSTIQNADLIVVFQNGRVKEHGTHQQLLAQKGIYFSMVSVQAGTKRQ

In the case of `[La+3].c1cnc2c(c1)ccc1cccnc12.c1cnc2c(c1)ccc1cccnc12.c1cnc2c(c1)ccc1cccnc12` [KP772, [tris(1,10-phenanthroline)lanthanum(III)] trithiocyanate], the EC50 is > 100 µM.

The values are drawn from paper PMC3371634 (Biochemical pharmacology, 2007).
